Assay results from ChEMBL document CHEMBL1201862, “PubChem BioAssay data set” (2004).
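Protocol summary: plate cells (96-well), add compound at 5 concentrations, incubate 48 h, interpolate endpoints linearly. GI50 is the concentration that inhibits growth by half.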 Active and inactive are the calls of the source. Rule as the data show it: active = GI50 up to about 1.1 µM and inactive = higher.

Key:
Experiment in all cases: NCI anticancer screen, dose series, 48 h
[1] = test system: 786-0
[2] = test system: A498
[3] = test system: A549
[4] = test system: ACHN
[5] = test system: BT-549
[6] = test system: CAKI-1
[7] = test system: CCRF-CEM
[8] = test system: COLO 205
[9] = test system: DU-145
[10] = test system: EKVX
[11] = test system: HCT-116
[12] = test system: HCT-15
[13] = test system: HOP-62
[14] = test system: HOP-92
[15] = test system: HT-29
[16] = test system: Hs-578T
[17] = test system: IGROV-1
[18] = test system: K562
[19] = test system: KM12
[20] = test system: LOX IMVI
[21] = test system: M14
[22] = test system: MCF7
[23] = test system: MDA-MB-231
[24] = test system: MDA-MB-435
[25] = test system: MDA-N
[26] = test system: MOLT-4
[27] = test system: Malme-3M
[28] = test system: NCI-H226
[29] = test system: NCI-H23
[30] = test system: NCI-H460
[31] = test system: NCI-H522
[32] = test system: NCI/ADR-RES
[33] = test system: OVCAR-3
[34] = test system: OVCAR-4
[35] = test system: OVCAR-5
[36] = test system: OVCAR-8
[37] = test system: PC-3
[38] = test system: RPMI-8226
[39] = test system: RXF 393
[40] = test system: SF-268
[41] = test system: SF-295
[42] = test system: SF-539
[43] = test system: SK-MEL-28
[44] = test system: SK-MEL-2
[45] = test system: SK-MEL-5
[46] = test system: SK-OV-3
[47] = test system: SN12C
[48] = test system: SNB-19
[49] = test system: SNB-75
[50] = test system: SR
[51] = test system: SW-620
[52] = test system: T47D
[53] = test system: TK-10
[54] = test system: U-251
[55] = test system: UACC-62
[56] = test system: UO-31
[57] = test system: HCC 2998
[58] = test system: HL-60
[59] = test system: UACC-257

COc1ccc2nc(-c3ccc(O)cc3)cn2c1
GI50 [1]: 58.7 µM (inactive)
GI50 [2]: 71.4 µM (inactive)
GI50 [3]: 64 µM (inactive)
GI50 [4]: 23.3 µM (inactive)
GI50 [5]: > 100 µM (inactive)
GI50 [6]: 55.8 µM (inactive)
GI50 [7]: 72.1 µM (inactive)
GI50 [8]: 43.5 µM (inactive)
GI50 [9]: 86.9 µM (inactive)
GI50 [10]: 98.6 µM (inactive)
GI50 [11]: 48.5 µM (inactive)
GI50 [12]: 48.8 µM
GI50 [13]: 50.1 µM (inactive)
GI50 [14]: 95.7 µM (inactive)
GI50 [15]: 46.6 µM (inactive)
GI50 [16]: 73.1 µM (inactive)
GI50 [17]: 42.4 µM (inactive)
GI50 [18]: 37.1 µM (inactive)
GI50 [19]: 50.2 µM (inactive)
GI50 [20]: 59 µM (inactive)
GI50 [21]: 47.4 µM (inactive)
GI50 [22]: 36 µM (inactive)
GI50 [23]: > 100 µM (inactive)
GI50 [24]: 18.5 µM (inactive)
GI50 [25]: 23.4 µM (inactive)
GI50 [26]: 49.1 µM (inactive)
GI50 [27]: > 100 µM (inactive)
GI50 [28]: > 100 µM (inactive)
GI50 [29]: 71.9 µM (inactive)
GI50 [30]: 27.4 µM (inactive)
GI50 [31]: 32 µM (inactive)
GI50 [32]: 65.8 µM (inactive)
GI50 [33]: 82 µM (inactive)
GI50 [34]: 73.8 µM (inactive)
GI50 [35]: > 100 µM (inactive)
GI50 [36]: 51.3 µM (inactive)
GI50 [37]: 43.9 µM (inactive)
GI50 [38]: 32.2 µM (inactive)
GI50 [39]: > 100 µM (inactive)
GI50 [40]: 56.8 µM (inactive)
GI50 [41]: > 100 µM (inactive)
GI50 [42]: 54.1 µM (inactive)
GI50 [43]: 85.5 µM (inactive)
GI50 [44]: > 100 µM (inactive)
GI50 [45]: 16.6 µM (inactive)
GI50 [46]: > 100 µM (inactive)
GI50 [47]: 94.8 µM (inactive)
GI50 [48]: > 100 µM (inactive)
GI50 [49]: 95.5 µM (inactive)
GI50 [50]: 10 µM (inactive)
GI50 [51]: 11.7 µM (inactive)
GI50 [52]: 89.9 µM (inactive)
GI50 [53]: 71 µM (inactive)
GI50 [54]: 44.7 µM (inactive)
GI50 [55]: 24.7 µM (inactive)
GI50 [56]: 35 µM (inactive)

O=c1c2ccccc2[nH]c(=S)n1-c1ccc(/N=N/c2cccc3cc(O)ccc23)cc1
GI50 [1]: 65.5 µM (inactive)
GI50 [3]: > 100 µM (inactive)
GI50 [4]: > 100 µM (inactive)
GI50 [5]: > 100 µM (inactive)
GI50 [6]: > 100 µM (inactive)
GI50 [7]: > 100 µM (inactive)
GI50 [8]: 44.5 µM (inactive)
GI50 [9]: > 100 µM (inactive)
GI50 [10]: > 100 µM (inactive)
GI50 [57]: > 100 µM (inactive)
GI50 [11]: > 100 µM (inactive)
GI50 [12]: 36.3 µM
GI50 [58]: 22.3 µM (inactive)
GI50 [13]: > 100 µM (inactive)
GI50 [14]: > 100 µM (inactive)
GI50 [15]: > 100 µM (inactive)
GI50 [16]: > 100 µM (inactive)
GI50 [17]: 64.9 µM (inactive)
GI50 [18]: 73.6 µM (inactive)
GI50 [19]: > 100 µM (inactive)
GI50 [20]: 43.5 µM (inactive)
GI50 [21]: > 100 µM (inactive)
GI50 [22]: 27 µM (inactive)
GI50 [23]: 48.4 µM (inactive)
GI50 [24]: > 100 µM (inactive)
GI50 [25]: > 100 µM (inactive)
GI50 [26]: > 100 µM (inactive)
GI50 [27]: > 100 µM (inactive)
GI50 [28]: > 100 µM (inactive)
GI50 [29]: > 100 µM (inactive)
GI50 [30]: > 100 µM (inactive)
GI50 [31]: > 100 µM (inactive)
GI50 [32]: > 100 µM (inactive)
GI50 [33]: > 100 µM (inactive)
GI50 [34]: > 100 µM (inactive)
GI50 [35]: 74.1 µM (inactive)
GI50 [36]: > 100 µM (inactive)
GI50 [37]: 35.1 µM (inactive)
GI50 [38]: > 100 µM (inactive)
GI50 [39]: > 100 µM (inactive)
GI50 [40]: > 100 µM (inactive)
GI50 [41]: > 100 µM (inactive)
GI50 [42]: > 100 µM (inactive)
GI50 [43]: > 100 µM (inactive)
GI50 [44]: > 100 µM (inactive)
GI50 [45]: 31.8 µM (inactive)
GI50 [46]: > 100 µM (inactive)
GI50 [47]: > 100 µM (inactive)
GI50 [48]: > 100 µM (inactive)
GI50 [49]: > 100 µM (inactive)
GI50 [50]: 94.6 µM (inactive)
GI50 [51]: > 100 µM (inactive)
GI50 [52]: > 100 µM (inactive)
GI50 [53]: > 100 µM (inactive)
GI50 [54]: 54.6 µM (inactive)
GI50 [59]: > 100 µM (inactive)
GI50 [55]: 49.2 µM (inactive)
GI50 [56]: > 100 µM (inactive)
